Source: patent publication EP0073143B1, “Novel complex amido and imido derivatives of carboxyalkyl peptides and thioethers and ethers of peptides” (priority 1981, dated 1983)

Assays:
man = settings: 13 patients treated, all biopsies; Hoorntje et al.; cited from earlier work
[1] = Loss of activity of an aqueous solution on standing; format: physicochemical; settings: fresh aqueous solution 1 mg per ml, pH of about 8, standing for as little as 30 minutes
[2] = test system: effects of 400 ng/kg of angiotensin I on mean arterial blood pressure; test: Intravenous effectiveness: effect on the pressor response to angiotensin I in anesthetized rats; format: in vivo; settings: de-iodo analog compared with the iodo compound
Description: Rats (190-290 g body weight) were fasted overnight and then anesthetized with intraperitoneal pentobarbital, 50-60 mg/kg. Tracheostomy was performed and the animals were ventilated mechanically. A cannula was inserted into a femoral vein for injection of angiotensin I, and a second cannula was inserted into a common carotid artery for direct measurement of arterial blood pressure. Heparin, 1,000 units, was injected via the femoral vein to prevent coagulation. Blood pressure was measured with a pressure transducer connected to a polygraph. The rats were injected with […] of angiotensin I in 20 µl of 0.9 g% NaCI, an amount of angiotensin I sufficient to raise mean arterial blood pressure by approximately 48 mm Hg.
After the responsiveness of a given rat to angiotensin I was established, the named compound at 0.5 micromole/kg (drug dissolved in 15 microliters of 0.9% NaCl) was given intravenously. At timed intervals, the effects of 400 ng/kg of angiotensin I on mean arterial blood pressure were tested. Results are shown below:
Experiments were carried out using rats according to Example 32.

[3] = biological target: T1, human plasma angiotensin converting enzyme (Homo sapiens, UniProt P12821); test: In vitro assay of inhibition of angiotensin converting enzyme; format: biochemical; settings: [3H]benzoyl-Gly-His-Leu 80 nM, 37°C, 15 minutes; order of magnitude only; read-out: I50
T1 construct: partially-purified human plasma angiotensin converting enzyme; from tissue; host or cells: human plasma
Description: To this was added 100 microliters of buffered substrate [S], [^3H]benzoyl-[…], 80 nM (25 Ci/mmole). The reaction was started by adding 100 microliters of partially-purified human plasma angiotensin converting enzyme, or 100 microliters of buffer alone. The concentration of enzyme [E] used was that required to hydrolyze 8-12% of substrate when incubated at 37°C for 15 minutes. The scintillation vials and their contents were incubated at 37°C for 15 minutes, and the reactions were stopped by adding 200 microliters of 0.5M HCI to each vial. The radioactive reaction product, [^3H]benzoyl-Gly(hippuric acid), was separated from unhydrolyzed substrate by adding and mixing (by inversion) 3 ml of Ventrex Cocktail No. 1 (Ventrex Laboratories, Inc., Portland, Maine), a fluid disclosed in copending U.S. patent application No. 184,653, filed September 6, 1980. Extractable ^3H was quantified by liquid scintillation counting. Substrate, in c.p.m., was quantified by scintillation counting of a vial containing 100 μl of buffered substrate in 5 ml of RIAfluor (New England Nuclear). The reaction mixture containing all constituents except for inhibitor was termed the control (C). The reaction mixture lacking enzyme and inhibitor was called the blank (B). Reaction mixtures containing inhibitor (varied over the range of 10^-4-10^-12M) were called the test (T) reactions. Under the conditions of this assay, the reaction obeys first order enzyme kinetics, thus the concentration of inhibitor required to inhibit the rate of hydrolysis by half (150) approximate the Ki value. The results were estimated by use of the formula: [formula] where C = control c.p.m.; B = blank c.p.m.; [S] = substrate c.p.m. The factor 100 converts fractional substrate utilization into percentage utilization, and 1/15 minute connects to percentage substrate utilization/minute. Thus, [E] is enzyme activity in percentage substrate utilization/minute. By substituting T for C, hydrolysis rates are computed for the test reaction mixtures. By comparing a given test rate against the control rate, the degree of inhibition can be computed.

T1 sequence (P12821 30-1232 limits assumed): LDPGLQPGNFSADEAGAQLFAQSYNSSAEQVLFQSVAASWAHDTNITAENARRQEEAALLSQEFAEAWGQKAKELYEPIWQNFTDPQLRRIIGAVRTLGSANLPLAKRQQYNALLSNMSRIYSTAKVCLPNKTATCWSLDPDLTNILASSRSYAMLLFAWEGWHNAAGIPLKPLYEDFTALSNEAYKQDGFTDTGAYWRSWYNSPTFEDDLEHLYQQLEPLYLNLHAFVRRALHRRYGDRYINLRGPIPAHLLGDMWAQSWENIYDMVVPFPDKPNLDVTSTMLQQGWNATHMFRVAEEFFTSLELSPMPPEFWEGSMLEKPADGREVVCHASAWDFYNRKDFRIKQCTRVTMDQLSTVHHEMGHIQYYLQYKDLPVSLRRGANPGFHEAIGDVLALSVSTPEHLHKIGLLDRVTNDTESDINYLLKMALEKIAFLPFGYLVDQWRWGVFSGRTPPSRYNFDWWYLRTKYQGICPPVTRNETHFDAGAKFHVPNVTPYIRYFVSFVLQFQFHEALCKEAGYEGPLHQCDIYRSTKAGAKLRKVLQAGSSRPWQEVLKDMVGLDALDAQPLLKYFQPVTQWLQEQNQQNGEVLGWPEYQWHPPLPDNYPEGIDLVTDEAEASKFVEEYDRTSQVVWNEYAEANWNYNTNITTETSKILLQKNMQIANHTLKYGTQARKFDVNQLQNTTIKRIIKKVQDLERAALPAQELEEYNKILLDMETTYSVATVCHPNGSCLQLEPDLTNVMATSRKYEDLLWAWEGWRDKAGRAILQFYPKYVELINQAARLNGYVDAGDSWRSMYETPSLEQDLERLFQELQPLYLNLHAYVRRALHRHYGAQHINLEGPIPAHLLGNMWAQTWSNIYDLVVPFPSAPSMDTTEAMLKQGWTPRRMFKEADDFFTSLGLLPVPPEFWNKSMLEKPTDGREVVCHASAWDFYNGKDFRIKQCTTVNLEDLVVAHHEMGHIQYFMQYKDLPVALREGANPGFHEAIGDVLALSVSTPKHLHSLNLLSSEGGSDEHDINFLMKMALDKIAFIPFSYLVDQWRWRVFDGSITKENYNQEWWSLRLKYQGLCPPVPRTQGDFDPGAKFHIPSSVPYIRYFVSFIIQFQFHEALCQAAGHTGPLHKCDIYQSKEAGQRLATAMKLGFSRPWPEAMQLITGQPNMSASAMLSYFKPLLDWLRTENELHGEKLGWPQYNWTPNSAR

Row | SMILES | renal biopsies (man) | activity of aqueous solution upon standing [1] | increase of intravenous effectiveness on removal of iodine [2] | IC50 [3] [nM]
1 | C[C@H](CS)C(=O)N1CCC[C@H]1C(=O)O [SQ14225, D-3-mercapto-2-methylpropanoyl-L-proline] | evidence of immune complex deposition along the glomerular basement membranes | substantially less active |  | 
2 | CC(N[C@@H](CCC(=O)Nc1ccc(I)cc1)C(=O)O)C(=O)N1CCC[C@H]1C(=O)O (stereo partly drawn) [N-[L-1-carboxy-3-(carbo-4-iodo-anilide)propyl] Alanyl-L-Proline] |  |  | three-fold | ~1
3 | CC(N[C@@H](CCC(=O)Nc1ccccc1)C(=O)O)C(=O)N1CCC[C@H]1C(=O)O (stereo partly drawn) [N-[L-1-carboxy-3-(carbo-anilide)propyl]-Alanyl-L-Proline] |  |  |  | ~1
4 | CC(N[C@@H](CC(=O)N1CCCC1)C(=O)O)C(=O)N1CCC[C@H]1C(=O)O (stereo partly drawn) [N-[L-1-carboxy-2-(carbopyrrolide)ethyl]-Alanyl-L-Proline] |  |  |  | ~100
